In patent EP0373543A2, “Diagnostic media and assay for detecting fungicide resistance” (BASF Corporation, priority 1988, dated 1990):

Tested on: Botrytis cinerea
Assay: Color change diameter on bromcresol purple media containing vinclozolin (Example 2)
Assay type: cell-based
Set-up: key to COLOR CHANGE DIAMETER: T = only slight color change
Conditions: for COLOR CHANGE DIAMETER: 20 hours
Experimental: To a stock solution of 0.4 g bromcresol purple in 260 mls of 0.01N sodium hydroxide, either 40 g of potato dextrose agar (PDA) or 40 g dextrose and 20 g agar (WA-dextrose medium) were added and the total volume brought up to 1 liter using distilled water. After autoclaving the media, a solution of vinclozolin in 5 mls of ethanol was added to afford 5 or 10 ppm concentrations and dispensed into petri plates (10 ml/plate). Sporulating cultures of Botrytis cinerea and Rhizopus nigricans (also known as Rhizopus stolonifer) were grown for two weeks on potato dextrose agar. Spores were transferred to the diagnostic media using sterile cotton tipped swabs and incubated for 20 hours at room temperature. The media was macroscopically examined and the diameter of color change detectable in the media was then measured.

C=CC1(C)OC(=O)N(c2cc(Cl)cc(Cl)c2)C1=O (stereo not shown) [vinclozolin]
COLOR CHANGE DIAMETER (isolate BC-1 res., PDA media, vinclozolin 5.0ppm): 5 mm | COLOR CHANGE DIAMETER (isolate BC-1 res., PDA media, vinclozolin 10.0ppm): 0 mm | COLOR CHANGE DIAMETER (isolate BC-1 res., WA-dextrose media, vinclozolin 5.0ppm): T^a | COLOR CHANGE DIAMETER (isolate BC-1 res., WA-dextrose media, vinclozolin 10.0ppm): 5 mm | COLOR CHANGE DIAMETER (isolate BC-2 res., PDA media, vinclozolin 5.0ppm): 10 mm | COLOR CHANGE DIAMETER (isolate BC-2 res., PDA media, vinclozolin 10.0ppm): 0 mm | COLOR CHANGE DIAMETER (isolate BC-2 res., WA-dextrose media, vinclozolin 5.0ppm): 10 mm | COLOR CHANGE DIAMETER (isolate BC-2 res., WA-dextrose media, vinclozolin 10.0ppm): 5 mm | COLOR CHANGE DIAMETER (isolate BC-3 resistant, PDA media, vinclozolin 5.0ppm): 10 mm | COLOR CHANGE DIAMETER (isolate BC-3 resistant, PDA media, vinclozolin 10.0ppm): 0 mm | COLOR CHANGE DIAMETER (isolate BC-3 resistant, WA-dextrose media, vinclozolin 5.0ppm): 10 mm | COLOR CHANGE DIAMETER (isolate BC-3 resistant, WA-dextrose media, vinclozolin 10.0ppm): 10 mm | COLOR CHANGE DIAMETER (isolate BC-A sensitive, PDA media, vinclozolin 5.0ppm): 0 mm | COLOR CHANGE DIAMETER (isolate BC-A sensitive, PDA media, vinclozolin 10.0ppm): 0 mm | COLOR CHANGE DIAMETER (isolate BC-A sensitive, WA-dextrose media, vinclozolin 5.0ppm): 0 mm | COLOR CHANGE DIAMETER (isolate BC-A sensitive, WA-dextrose media, vinclozolin 10.0ppm): 0 mm | COLOR CHANGE DIAMETER (isolate BC-B sens., PDA media, vinclozolin 5.0ppm): 0 mm | COLOR CHANGE DIAMETER (isolate BC-B sens., PDA media, vinclozolin 10.0ppm): 0 mm | COLOR CHANGE DIAMETER (isolate BC-B sens., WA-dextrose media, vinclozolin 5.0ppm): 0 mm | COLOR CHANGE DIAMETER (isolate BC-B sens., WA-dextrose media, vinclozolin 10.0ppm): 0 mm | COLOR CHANGE DIAMETER (isolate BC-D sens., PDA media, vinclozolin 5.0ppm): 0 mm | COLOR CHANGE DIAMETER (isolate BC-D sens., PDA media, vinclozolin 10.0ppm): 0 mm | COLOR CHANGE DIAMETER (isolate BC-D sens., WA-dextrose media, vinclozolin 5.0ppm): 0 mm | COLOR CHANGE DIAMETER (isolate BC-D sens., WA-dextrose media, vinclozolin 10.0ppm): 0 mm | color change (resistant isolates, PDA media containing 10 ppm of vinclozolin, after 4 days): no measurable color change
